# According to paper PMC7463714, “Design and Synthesis of Novel Hybrid 8-Hydroxy Quinoline-Indole Derivatives as Inhibitors of Aβ Self-Aggregation and Metal Chelation-Induced Aβ Aggregation” (Molecules, 2020):
# Entries after “also recorded” stand apart in the source; their conditions may differ.
# How the values were obtained:
# [1] = molecular target: T1, Zn^2+-induced Aβ1–42 aggregation (Homo sapiens, UniProt P05067); test: Zn2+-induced Aβ1–42 aggregation, ThT fluorescence assay; type: biochemical; conditions: compound 50 µM; Aβ1–42 25 µM; Zn^2+ 25 µM; 24 h, 37 °C
# T1 construct: Aβ1–42 (Adooq Bioscience, CA, USA); purchased Adooq Bioscience
# Protocol: (§1) Initially, CuSO4 or ZnCl2 was added to Aβ1–42 peptides at room temperature and the mixture incubated with or without drugs for 24 h at 37 °C. The fluorescence intensity of Aβ1–42 peptide alone was designated as 100%.
# (§2) Mixtures of the peptide (10 µL, 25 µM final concentration) with or without Cu^2+ or Zn^2+ (10 µL, 25 μM final concentration) and the test compound (10 µL, 50 μM final concentration) were incubated at 37 °C for 24 h. Then 50 mM glycine-NaOH buffer (pH 8.0) containing ThT (5 µM) was added to 20 µL of the sample and diluted to afford a final volume of 200 µL. Fluorescence intensities of the solutions were recorded (excitation, 450 nm; emission, 485 nm). The percentage of […] was calculated by the expression (1 − IFi/IFc) × 100, in which IFi and IFc are the fluorescence intensities obtained for Aβ in the presence and absence of inhibitors, respectively.
# [2] = molecular target: T2, Cu^2+-induced Aβ1–42 aggregation (Homo sapiens, UniProt P05067); test: Cu2+-induced Aβ1–42 aggregation, ThT fluorescence assay; type: biochemical; conditions: compound 50 µM; Aβ1–42 25 µM; Cu^2+ 25 µM; 24 h, 37 °C
# T2 construct: Aβ1–42 (Adooq Bioscience, CA, USA); purchased Adooq Bioscience
# Protocol: as §1, §2
# Aβ1–42 = molecular target: T3, Aβ1–42 (Homo sapiens, UniProt P05067); test: Self-induced Aβ1–42 aggregation, thioflavin T (ThT) fluorescence assay; type: biochemical; conditions: 25 µM Aβ1–42; compound 0.3-27 µM; 37 °C, 48 h; ThT fluorescence; read-out: EC50 against self-induced Aβ1–42 aggregation
# T3 construct: Aβ1–42 (Adooq Bioscience, CA, USA); purchased Adooq Bioscience
# Protocol: The novel hybrid 8-hydroxyquinoline-indole derivatives, 7a–7e, 12a, 12b, and the (8-hydroxyquinolin-2-yl)methyl-4-(1H-indole-2-carbonyl)piperazine-1-carboxylate analogs 18a–18h were evaluated for inhibitory activity against self-induced Aβ1–42 aggregation at five different concentrations (0.3, 1.0, 3, 9 and 27 µM) with 25 µM Aβ1–42, utilizing a thioflavin T (ThT) fluorescence assay with clioquinol, 1 as a positive control (Figure 3). In the absence of inhibitor, the self-induced Aβ1–42 aggregation ThT fluorescence was recorded as 115 arbitrary units (a.u.). The self-induced Aβ1–42 aggregation results for all the above synthetic analogs from the ThT fluorescence assay are shown in Table 1. […] The thioflavin T (ThT)-fluorescence assay was used to measure the inhibition of Aβ aggregation. Aβ1–42 (Adooq Bioscience, CA, USA) was pretreated with 1 mL of hexafluoroisopropanol (HFIP) to afford a stock solution, which was aliquoted into small samples. The solvent was evaporated at room temperature, and samples were stored at −80 °C. For Aβ1–42 aggregation inhibition experiments, phosphate buffer (pH 7.4) was added to the Aβ stock solution to afford a 50 µM concentration before use. A mixture of the Aβ1–42 peptide (10 µL, 25 µM final concentration) with or without the test compound (10 µL; 0.3, 1.0, 3, 9, and 27 µM) was incubated at 37 °C for 48 h. Blanks using phosphate buffer (pH 7.4) instead of Aβ, with or without test compound, were also assessed. Then 50 mM glycine-NaOH buffer (pH 8.0) containing ThT (5 µM) was added to 20 µL of the sample to afford a final volume of 200 µL. The fluorescence intensities were recorded (excitation, 450 nm; emission, 485 nm). The fluorescence intensities were background corrected to the no enzyme control and 100% of intensity reflected no inhibition of aggregation. To obtain the normalized amyloid aggregation inhibition relative to the control group, the amyloid aggregation/cell values were further divided by the total amyloid fluorescence of the control group. Using GraphPad Prism, the amyloid aggregation values (relative to control group) were entered along the corresponding concentrations for the triplicates and then a log transformation was obtained. Using the dose–response simulation module in GraphPad Prism, nonlinear regression fit (curve) was then generated for each small molecule with various concentrations used. Curves were then compared to determine if they were statistically different, by performing the best-fit values of selected unshared parameters between data sets and extra sum-of-squares F test, allowing for selection of the simpler model unless the P value was less than 0.05. The logEC50 output parameter was then selected to obtain the EC50 for each of the dose–response curves for the small molecules.
# SY5Y-APPSw cells = test: Protein aggregation in SY5Y-APPSw cells (ThT staining); type: cell-based; conditions: 1 µM, 48 h, 37 °C; compared to clioquinol (1)
# Protocol: In another study compounds 7a–7d, 18c–18f, and 18h were also evaluated for their ability to reduce protein aggregation in SY5Y-APPSw cells. SY5Y-APPSw cells were exposed to the above protein aggregation inhibitors and parent compound 1 at 1 µM for 48 h at 37 °C. Cells were assessed for amyloid deposits by staining with 0.1% w/v ThT, counterstaining nuclei with DAPI, and mean ThT fluorescence signal per nucleus calculated over multiple fields. All the analogs reduced fluorescence intensity (indicative of protein aggregation) by 22–67% (P < 0.001 by 2-tailed t-test). […] Thioflavin-T fluorescence assays for in vitro amyloid aggregation and cell culture models of amyloid aggregation overlap but are not identical. This is due to the fact that thioflavin in cell-culture stains not just amyloid aggregates but also other amyloid-like fibrillar structures. Another important difference is that in vitro aggregation is assessed after 24 h, whereas aggregation in cell culture is assessed after 48 h.
# (§3) Human Embryonic Kidney cells that overexpress tau protein (HEK-tau) cells or SY5Y neuroblastoma cells that express a familial-AD mutant of amyloid precursor protein (SY5Y-APPSw cells) were each seeded in 96-well plates at 8000 cells per well. After 24 h, cells were supplemented with test compound at 1 µM after diluting with medium. Vehicle only control was also included for each experiment. The cells were cultured for an additional 48 h at 37 °C. Both the cell lines were able to reach approximately 80% confluency in 48 h. Cells were assessed for amyloid deposits by staining with 0.1% w/v ThT, counterstaining nuclei with DAPI, and calculating mean ThT fluorescence signal per nucleus over multiple fields.
# HEK-tau cells = test: Protein aggregation in HEK-tau cells (ThT staining); type: cell-based, Human; conditions: 1 µM, 48 h, 37 °C; compared to clioquinol (1)
# Protocol: In our study, we have shown that restoring metal homeostasis by treatment with hybrid 8-hydroxyquinoline-indole analogs reduces tau- and amyloid-mediated protein aggregation, and their associated neurotoxicity. Analogs 7a–7d, 18c–18f, and 18h were evaluated for their ability to reduce protein aggregation in HEK-tau cells. HEK-tau cells were exposed to the above Aβ1–42 aggregation inhibitors and parent drug clioquinol (1) at 1 µM for 48 h at 37 °C. Cells were assessed for amyloid deposits by staining with 0.1% w/v thioflavin T, counterstaining nuclei with DAPI, and mean ThT fluorescence signal per nucleus was calculated over multiple fields. All the analogs reduced fluorescence intensity (indicative of protein aggregation) by 26–62% (P < 0.001 by 2-tailed t-test).
# as §3
# T1 sequence (P05067 672-713 limits assumed): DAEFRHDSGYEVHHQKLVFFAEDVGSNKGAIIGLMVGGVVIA
# T2 sequence (P05067 672-713 limits assumed): as above
# T3 sequence (P05067 672-713 limits assumed): as above
SMILES,EC50 (Aβ1–42),also measured
"Oc1c(I)cc(Cl)c2cccnc12 [Compound 1, Clioquinol, reference compound]",9.95 µM,decrease of ThT fluorescence / inhibition of Zn^2+-induced Aβ1–42 aggregation [1]: 57.2%; decrease of ThT fluorescence / inhibition of Cu^2+-induced Aβ1–42 aggregation [2]: 62.5%
"O=C(O)c1cc2ccccc2[nH]1 [Compound 5a, 1H-indole-2-carboxylic acid, reference compound]",> 20 µM,
"O=C(OCc1ccc2cccc(O)c2n1)c1cc2ccccc2[nH]1 [Compound 7a, (8-Hydroxyquinolin-2-yl)methyl-1H-indole-2-carboxylate]",4.26 µM,"protein aggregation inhibition in SY5Y-APPSw cells, result in words (SY5Y-APPSw cells): most effective"
"O=C(OCc1ccc2c(Cl)cc(Cl)c(O)c2n1)c1cc2ccccc2[nH]1 [Compound 7b, (5,7-Dichloro-8-hydroxyquinolin-2-yl)methyl-1H-indole-2-carboxylate]",9.28 µM,
"COc1ccc2[nH]c(C(=O)OCc3ccc4cccc(O)c4n3)cc2c1 [Compound 7c, (8-Hydroxyquinolin-2-yl)methyl-5-methoxy-1H-indole-2-carboxylate]",3.22 µM,
"O=C(OCc1ccc2cccc(O)c2n1)c1cc2cc(F)ccc2[nH]1 [Compound 7d, (8-Hydroxyquinolin-2-yl)methyl-5-fluoro-1H-indole-2-carboxylate]",6.34 µM,
"O=C(OCc1ccc2c(Cl)cc(Cl)c(O)c2n1)c1cc2cc(F)ccc2[nH]1 [Compound 7e, (5,7-Dichloro-8-hydroxyquinolin-2-yl)methyl-5-fluoro-1H-indole-2-carboxylate]",9.52 µM,
"O=C(NCc1ccc2c(Cl)cc(Cl)c(O)c2n1)c1cc2ccccc2[nH]1 [Compound 12a, N-((5,7-Dichloro-8-hydroxyquinolin-2-yl)methyl)-1H-indole-2-carboxamide]",> 10 µM,
"COc1ccc2[nH]c(C(=O)NCc3ccc4c(Cl)cc(Cl)c(O)c4n3)cc2c1 [Compound 12b, N-((5,7-Dichloro-8-hydroxyquinolin-2-yl)methyl)-5-methoxy-1H-indole-2-carboxamide]",> 10 µM,

# The next lines start with results.
EC50 (Aβ1–42),SMILES,also measured
> 10 µM,"O=C(OCc1ccc2cccc(O)c2n1)N1CCN(C(=O)c2cc3ccccc3[nH]2)CC1 [Compound 18a, (8-Hydroxyquinolin-2-yl)methyl-4-(1H-indole-2-carbonyl)piperazine-1-carboxylate]",
> 10 µM,"O=C(OCc1ccc2c(Br)cc(Br)c(O)c2n1)N1CCN(C(=O)c2cc3ccccc3[nH]2)CC1 [Compound 18b, (5,7-Dibromo-8-hydroxyquinolin-2-yl)methyl-4-(1H-indole-2-carbonyl)piperazine-1-carboxylate]",
1.72 µM,"O=C(OCc1ccc2c(Cl)cc(Cl)c(O)c2n1)N1CCN(C(=O)c2cc3ccccc3[nH]2)CC1 [Compound 18c, (5,7-Dichloro-8-hydroxyquinolin-2-yl)methyl-4-(1H-indole-2-carbonyl)piperazine-1-carboxylate]","decrease of ThT fluorescence / inhibition of Zn^2+-induced Aβ1–42 aggregation [1]: 70.3%; protein aggregation inhibition in SY5Y-APPSw cells, result in words (SY5Y-APPSw cells): effective in reducing protein aggregation; decrease of ThT fluorescence / inhibition of Cu^2+-induced Aβ1–42 aggregation [2]: 76.6%; protein aggregation inhibition in HEK-tau cells, result in words (HEK-tau cells): most effective; also recorded: effective in reducing protein aggregation"
1.48 µM,"COc1ccc2[nH]c(C(=O)N3CCN(C(=O)OCc4ccc5cccc(O)c5n4)CC3)cc2c1 [Compound 18d, (8-Hydroxyquinolin-2-yl)methyl-4-(5-methoxy-1H-indole-2-carbonyl)piperazine-1-carboxylate]","decrease of ThT fluorescence / inhibition of Zn^2+-induced Aβ1–42 aggregation [1]: 59.3%; protein aggregation inhibition in SY5Y-APPSw cells, result in words (SY5Y-APPSw cells): most effective; also recorded: effective in reducing protein aggregation; decrease of ThT fluorescence / inhibition of Cu^2+-induced Aβ1–42 aggregation [2]: 66.1%; protein aggregation inhibition in HEK-tau cells, result in words (HEK-tau cells): effective in reducing protein aggregation"
2.49 µM,"COc1ccc2[nH]c(C(=O)N3CCN(C(=O)OCc4ccc5c(Br)cc(Br)c(O)c5n4)CC3)cc2c1 [Compound 18e, (5,7-Dibromo-8-hydroxyquinolin-2-yl)methyl-4-(5-methoxy-1H-indole-2-carbonyl)piperazine-1-carboxylate]",
> 10 µM,"O=C(OCc1ccc2c(Cl)cc(Cl)c(O)c2n1)N1CCN(C(=O)c2cc3cc(F)ccc3[nH]2)CC1 [Compound 18g, (5,7-Dichloro-8-hydroxyquinolin-2-yl)methyl-4-(5-fluoro-1H-indole-2-carbonyl)piperazine-1-carboxylate]",
2.58 µM,O=C(OCc1ccc2cccc(O)c2n1)N1CCN(C(=O)c2cc3cc(F)ccc3[nH]2)CC1 [Compound 18h],
